According to patent publication US20080188498A1, “Pyridopyrimidinone compounds with antimalarial activity” (Radix Pharmaceuticals, Inc., priority 2007, published 2008):

How the values were obtained:
[1] = system: Plasmodium berghei KBG-173; experiment: Blood schizontocidal test, oral dosing, P. berghei in mice; assay type: in vivo, mouse; conditions: days 3-5 postinfection
Procedure: Drugs were mixed in 0.5% hydroxycellulose 0.1% Tween 80 and administered orally b.i.d. on days 3, 4 and 5 postinfection. CD-1 male or female mice, 5 weeks of age, were infected with 5×10^4 parasitized erythrocytes of Plasmodium berghei KBG-173 mm strain. Blood films were taken on day +6 and weekly thereafter until day +60. Parasitemias were calculated and SD90 value (dose suppressing 90% of the parasites in treated groups compared with the infected non-treated controls) on day +6 postinfection. Mortality data was tabulated for 60 days at which time all mice surviving that were blood film negative were considered cured. […]

[2] = system: P. berghei; experiment: Suppressive blood schizontocidal test, single subcutaneous dose, P. berghei in mice; assay type: in vivo, mouse; conditions: 72 h after infection
Procedure: Mice were treated with a single dose of the compound administered subcutaneously 72 h. after infection. Number of cures is the number of mice surviving, out of five, 60 days postinfection.

[3] = system: Plasmodium berghei KBG-173; experiment: Prophylactic test, oral, P. berghei in mice; assay type: in vivo, mouse
Excerpt: Drugs were mixed in 0.5% hydroxycellulose 0.1% Tween 80 and administered orally b.i.d. either on day 5, 4, 3, 2, or 1 prior to the infection or 1 or 2 days postinfection. CD-I male or female mice, 5 weeks of age, were infected with 5×10^4 parasitized erythrocytes of Plasmodium berghei KBG-173 mm strain. Blood films were taken on day +6 and weekly thereafter until day+30. […]

[4] = system: mouse; conditions: strong liver toxicity; cited from earlier work
[5] = oral dose 0.25 mg/kg/day (total dose 0.75 mg/kg)
[6] = oral dose 1.0 mg/kg/day (total dose 3.0 mg/kg)
[7] = oral dose 4.0 mg/kg/day (total dose 12 mg/kg)
[8] = oral dose 16 mg/kg/day (total dose 48 mg/kg)
[9] = oral dose 64 mg/kg/day (total dose 192 mg/kg)
[10] = single subcutaneous dose 1 mg/kg
[11] = single subcutaneous dose 2 mg/kg
[12] = single subcutaneous dose 4 mg/kg
[13] = single subcutaneous dose 8 mg/kg
[14] = single subcutaneous dose 16 mg/kg
[15] = single subcutaneous dose 32 mg/kg
[16] = single subcutaneous dose 64 mg/kg
[17] = single subcutaneous dose 128 mg/kg
[18] = single dose of 0.5 mg/kg, day of treatment 1
[19] = single dose of 0.5 mg/kg, day of treatment 2
[20] = single dose of 0.5 mg/kg, day of treatment −1
[21] = single dose of 0.5 mg/kg, day of treatment −2

## CCN(CC)CCCC(C)Nc1ccnc2cc(Cl)ccc12 (centres unmarked) [Chloroquine, reference compound]
[1]; [5]
  Mice surviving 60 days/Mice infected and treated: 0/7
[1]; [6]
  Mice surviving 60 days/Mice infected and treated: 0/7
[1]; [7]
  Mice surviving 60 days/Mice infected and treated: 2/7
[1]; [8]
  Mice surviving 60 days/Mice infected and treated: 4/7
[1]; [9]
  Mice surviving 60 days/Mice infected and treated: 0/7

## O=C(CC1NCCC1O)Cn1cnc2cccnc2c1=O (centres unmarked) [Compound I, 3-[3-(3-Hydroxy-pyrrolidin-2-yl)-2-oxo-propyl]-3H-pyrido[3,2-d]pyrimidin-4-one]
[1]; [5]
  Mice surviving 60 days/Mice infected and treated: 7/7
[1]; [6]
  Mice surviving 60 days/Mice infected and treated: 7/7
[1]; [7]
  Mice surviving 60 days/Mice infected and treated: 7/7
[1]; [8]
  Mice surviving 60 days/Mice infected and treated: 7/7
[1]; [9]
  Mice surviving 60 days/Mice infected and treated: 7/7
[2]; [10]
  Mice surviving 60 days/Mice infected and treated: 4/5
[2]; [11]
  Mice surviving 60 days/Mice infected and treated: 5/5
[2]; [12]
  Mice surviving 60 days/Mice infected and treated: 5/5
[2]; [13]
  Mice surviving 60 days/Mice infected and treated: 5/5
[2]; [14]
  Mice surviving 60 days/Mice infected and treated: 5/5
[2]; [15]
  Mice surviving 60 days/Mice infected and treated: 5/5
[2]; [16]
  Mice surviving 60 days/Mice infected and treated: 5/5
[2]; [17]
  Mice surviving 60 days/Mice infected and treated: 5/5
[3]; oral, day of treatment 1, dose 0.5 mg/kg
  Mice surviving day 60/Mice infected and treated: 5/5
[3]; oral, day of treatment 1, dose 2 mg/kg
  Mice surviving day 60/Mice infected and treated: 5/5
[3]; oral, day of treatment 1, dose 8 mg/kg
  Mice surviving day 60/Mice infected and treated: 5/5
[3]; oral, day of treatment 1, dose 32 mg/kg
  Mice surviving day 60/Mice infected and treated: 5/5
[3]; oral, day of treatment 2, dose 0.5 mg/kg
  Mice surviving day 60/Mice infected and treated: 5/5
[3]; oral, day of treatment 2, dose 2 mg/kg
  Mice surviving day 60/Mice infected and treated: 5/5
[3]; oral, day of treatment 2, dose 8 mg/kg
  Mice surviving day 60/Mice infected and treated: 5/5
[3]; oral, day of treatment 2, dose 32 mg/kg
  Mice surviving day 60/Mice infected and treated: 5/5
[3]; oral, day of treatment −1, dose 0.5 mg/kg
  Mice surviving day 60/Mice infected and treated: 5/5
[3]; oral, day of treatment −1, dose 2 mg/kg
  Mice surviving day 60/Mice infected and treated: 5/5
[3]; oral, day of treatment −1, dose 8 mg/kg
  Mice surviving day 60/Mice infected and treated: 5/5
[3]; oral, day of treatment −1, dose 32 mg/kg
  Mice surviving day 60/Mice infected and treated: 5/5
[3]; oral, day of treatment −2, dose 0.5 mg/kg
  Mice surviving day 60/Mice infected and treated: 5/5
[3]; oral, day of treatment −2, dose 2 mg/kg
  Mice surviving day 60/Mice infected and treated: 5/5
[3]; oral, day of treatment −2, dose 8 mg/kg
  Mice surviving day 60/Mice infected and treated: 5/5
[3]; oral, day of treatment −2, dose 32 mg/kg
  Mice surviving day 60/Mice infected and treated: 5/5
[3]; oral, day of treatment −3, dose 0.5 mg/kg
  Mice surviving day 60/Mice infected and treated: 0/5
[3]; oral, day of treatment −3, dose 2 mg/kg
  Mice surviving day 60/Mice infected and treated: 5/5
[3]; oral, day of treatment −3, dose 8 mg/kg
  Mice surviving day 60/Mice infected and treated: 5/5
[3]; oral, day of treatment −3, dose 32 mg/kg
  Mice surviving day 60/Mice infected and treated: 5/5
[3]; single dose of 0.5 mg/kg within 2 days preinfection through 2 days post infection
  Protection from malaria (oral prophylactic activity): completely protected from malaria

## O=C(CC1NCCC1O)Cn1cnc2ccncc2c1=O (centres unmarked) [Compound II, 3-[3-(3-Hydroxy-pyrrolidin-2-yl)-2-oxo-propyl]-3H-pyrido[4,3-d]pyrimidin-4-one]
[1]; [5]
  Mice surviving 60 days/Mice infected and treated: 7/7
[1]; [6]
  Mice surviving 60 days/Mice infected and treated: 7/7
[1]; [7]
  Mice surviving 60 days/Mice infected and treated: 7/7
[1]; [8]
  Mice surviving 60 days/Mice infected and treated: 7/7
[1]; [9]
  Mice surviving 60 days/Mice infected and treated: 7/7
[2]; [10]
  Mice surviving 60 days/Mice infected and treated: 4/5
[2]; [11]
  Mice surviving 60 days/Mice infected and treated: 5/5
[2]; [12]
  Mice surviving 60 days/Mice infected and treated: 5/5
[2]; [13]
  Mice surviving 60 days/Mice infected and treated: 5/5
[2]; [14]
  Mice surviving 60 days/Mice infected and treated: 5/5
[2]; [15]
  Mice surviving 60 days/Mice infected and treated: 5/5
[2]; [16]
  Mice surviving 60 days/Mice infected and treated: 5/5
[2]; [17]
  Mice surviving 60 days/Mice infected and treated: 5/5
[3]; [18]
  Mice surviving day 60/Mice infected and treated: 5/5
[3]; [19]
  Mice surviving day 60/Mice infected and treated: 5/5
[3]; [20]
  Mice surviving day 60/Mice infected and treated: 5/5
[3]; [21]
  Mice surviving day 60/Mice infected and treated: 5/5

## O=C(CC1NCCC1O)Cn1cnc2cccc(F)c2c1=O (centres unmarked) [Compound III, 5-Fluoro-3-[3-(3-hydroxy-pyrrolidin-2-yl)-2-oxo-propyl]-3H-quinazolin-4-one]
[1]; [5]
  Mice surviving 60 days/Mice infected and treated: 5/7
[1]; [6]
  Mice surviving 60 days/Mice infected and treated: 6/7
[1]; [7]
  Mice surviving 60 days/Mice infected and treated: 7/7
[1]; [8]
  Mice surviving 60 days/Mice infected and treated: 7/7
[1]; [9]
  Mice surviving 60 days/Mice infected and treated: 7/7
[2]; [10]
  Mice surviving 60 days/Mice infected and treated: 4/5
[2]; [11]
  Mice surviving 60 days/Mice infected and treated: 5/5
[2]; [12]
  Mice surviving 60 days/Mice infected and treated: 5/5
[2]; [13]
  Mice surviving 60 days/Mice infected and treated: 5/5
[2]; [14]
  Mice surviving 60 days/Mice infected and treated: 5/5
[2]; [15]
  Mice surviving 60 days/Mice infected and treated: 5/5
[2]; [16]
  Mice surviving 60 days/Mice infected and treated: 5/5
[2]; [17]
  Mice surviving 60 days/Mice infected and treated: 5/5
[3]; [18]
  Mice surviving day 60/Mice infected and treated: 5/5
[3]; [19]
  Mice surviving day 60/Mice infected and treated: 5/5
[3]; [20]
  Mice surviving day 60/Mice infected and treated: 5/5
[3]; [21]
  Mice surviving day 60/Mice infected and treated: 5/5

## O=C(CC1NCCC1O)Cn1cnc2ccc(F)c(F)c2c1=O (centres unmarked) [Compound IV, 5,6-Difluoro-3-[3-(3-hydroxy-pyrrolidin-2-yl)-2-oxo-propyl]-3H-quinazolin-4-one]
[1]; [5]
  Mice surviving 60 days/Mice infected and treated: 6/7
[1]; [6]
  Mice surviving 60 days/Mice infected and treated: 7/7
[1]; [7]
  Mice surviving 60 days/Mice infected and treated: 7/7
[1]; [8]
  Mice surviving 60 days/Mice infected and treated: 7/7
[1]; [9]
  Mice surviving 60 days/Mice infected and treated: 7/7
[2]; [10]
  Mice surviving 60 days/Mice infected and treated: 4/5
[2]; [11]
  Mice surviving 60 days/Mice infected and treated: 5/5
[2]; [12]
  Mice surviving 60 days/Mice infected and treated: 5/5
[2]; [13]
  Mice surviving 60 days/Mice infected and treated: 5/5
[2]; [14]
  Mice surviving 60 days/Mice infected and treated: 5/5
[2]; [15]
  Mice surviving 60 days/Mice infected and treated: 5/5
[2]; [16]
  Mice surviving 60 days/Mice infected and treated: 5/5
[2]; [17]
  Mice surviving 60 days/Mice infected and treated: 5/5
[3]; [18]
  Mice surviving day 60/Mice infected and treated: 5/5
[3]; [19]
  Mice surviving day 60/Mice infected and treated: 5/5
[3]; [20]
  Mice surviving day 60/Mice infected and treated: 5/5
[3]; [21]
  Mice surviving day 60/Mice infected and treated: 5/5

## O=C(CC1NCCC1O)Cn1cnc2cccc(C(F)(F)F)c2c1=O (centres unmarked) [Compound V, 3-[3-(3-Hydroxy-pyrrolidin-2-yl)-2-oxo-propyl]-5-trifluoromethyl-3H-quinazolin-4-one]
[1]; [5]
  Mice surviving 60 days/Mice infected and treated: 7/7
[1]; [6]
  Mice surviving 60 days/Mice infected and treated: 7/7
[1]; [7]
  Mice surviving 60 days/Mice infected and treated: 7/7
[1]; [8]
  Mice surviving 60 days/Mice infected and treated: 7/7
[1]; [9]
  Mice surviving 60 days/Mice infected and treated: 7/7
[2]; [10]
  Mice surviving 60 days/Mice infected and treated: 4/5
[2]; [11]
  Mice surviving 60 days/Mice infected and treated: 5/5
[2]; [12]
  Mice surviving 60 days/Mice infected and treated: 5/5
[2]; [13]
  Mice surviving 60 days/Mice infected and treated: 5/5
[2]; [14]
  Mice surviving 60 days/Mice infected and treated: 5/5
[2]; [15]
  Mice surviving 60 days/Mice infected and treated: 5/5
[2]; [16]
  Mice surviving 60 days/Mice infected and treated: 5/5
[2]; [17]
  Mice surviving 60 days/Mice infected and treated: 5/5
[3]; [18]
  Mice surviving day 60/Mice infected and treated: 5/5
[3]; [19]
  Mice surviving day 60/Mice infected and treated: 5/5
[3]; [20]
  Mice surviving day 60/Mice infected and treated: 5/5
[3]; [21]
  Mice surviving day 60/Mice infected and treated: 5/5

## O=C(C[C@H]1NCCC[C@@H]1O)Cn1cnc2ccccc2c1=O [Febrifugine, reference compound]
[1]; [5]
  Mice surviving 60 days/Mice infected and treated: 1/7
[1]; [6]
  Mice surviving 60 days/Mice infected and treated: 2/7
[1]; [7]
  Mice surviving 60 days/Mice infected and treated: 5/7
[1]; [8]
  Mice surviving 60 days/Mice infected and treated: 0/7
[1]; [9]
  Mice surviving 60 days/Mice infected and treated: 0/7
[4]
  Dosage at which mouse toxic death occurred: 10 mg/kg/day
